Columns and labels:
confluent BAEC [1] = assay: Total β-galactosidase expression measured fluorometrically in cell lysates; type: cell-based, bovine; settings: for increase in total β-galactosidase expression over transfection with plasmid alone: plasmid precomplexed with peptide, lipofectamine; for enhancement of β-galactosidase expression / gene transfer: lipofection
Description: (§1) Bovine aortic endothelial cells (BAEC) (passage<10) are grown to confluence, passed to a 6-well culture dish at a split ratio of 1:3, and then grown to confluence as described by Subramanian, A. and Diamond, S. L. Tissue Engineering 3, 39-52, 1997. Growth medium is Dulbecco's modified Eagle's medium (DMEM) containing 10% heat inactivated newborn calf serum, 0.30 mg/ml of glutamine, 150 U/ml penicillin and 0.15 mg/ml streptomycin (GIBCO, Grand Island, N.Y.). Hela cells (Hela S3 ATCC No. CCL 2.2) are grown in DMEM media (Gibco BRL) supplemented with 10% fetal calf serum as described by Ranjan, V. and Diamond, S. L. Biochem. Biophys. Res. Comm. 196, 79, 1993.
(§2) Cationic liposomes (Lipofectamine Reagent, Gibco-BRL), containing a 3:1 by weight mixture of polycationic lipid 2,3-dioleoyloxy-N-[2(sperminecarboxamido)ethyl]-N,N-dimethyl-1 propanaminium trifluoroacetate (DOSPA) and the neutral lipid dioleoyl phosphatidylethanolamine (DOPE) was used in all transfections in accordance with procedures described by Subramanian, A. and Diamond, S. L. Tissue Engineering 3, 39-52, 1997. Pure liposome (10 μl) diluted to 100 μl are added to the DNA/scaffold complex, incubated for 45 minutes. Then 0.8 ml of OPTIMEM media is added to this mixture which is then overlaid on the cells. The cells are incubated for 2 hours at 37 ? C. After two hours, the mixture is aspirated, 4% serum in OPTIMEM media is added, and the cells are allowed to grow for 48 hours. The cells are then fixed and assayed for ? -gal activity. During the transfections, the cells are continuously monitored for cell viability and adhesion.
To assay for ? gal to measure % transfection, cells are stained with XGAL as described by Subramanian, A. and Diamond, S. L. Tissue Engineering 3, 39-52, 1997. The percent of cells stained per field of view is counted using a Zeiss 125M inverted microscope. The count is averaged from at least 4 fields of view for each transfected monolayer. To measure ? -gal expression quantitatively, cell lysates are prepared and tested for ? -gal activity against the fluorogenic substrate, fluorescein di- ? -D-galactopyranoside (FDG, F-1179 Molecular Probes) which is not fluorescent until cleaved to fluorescein monogalactoside and then to fluorescein (excitation/emission: 494/520 nM). For flow cytometry, the trypsinized cell suspension is supplemented with serum, pelleted (100 g) and resuspended in staining medium to approximately 10^7 cells/ml. A 100 μL cell suspension is maintained at 37 ? C and 100 μl of 2 mM FDG maintained at 37 ? C is then added to the cell suspension, mixed rapidly and incubated at 37 ? C for 1 minute. The FDG loading is stopped at the end of 1 minute by adding 1.8 mL of ice-cold staining medium containing 1.5 μM Propidium Iodide and 1 mM PETG. The cells are kept on ice prior to flow cytometer analysis using a Becton Dickinson FACScan system. Unstained BAEC cells allow compensation for autofluorescence. The histogram showing fluorescence/cell to the number of cells is used to calculate the % transfection.

confluent BAEC [2] = assay: Flow cytometry (FDG) of confluent BAEC lipofected with pCMVβgal ± peptides; type: cell-based, bovine; settings: 1 μg plasmid
Description: as §1
as §2, with “The cells are incubated for 2 hours at 37 ? C. After two hours, the mixture is aspirated, 4% serum in OPTIMEM media is added, and the cells are allowed to grow for 48 hours. The cells are then fixed and assayed for ? -gal activity.” left out, “adhesion. […]” for “adhesion.”

plasmid = assay: Ethidium bromide fluorescence release assay of plasmid condensation; type: binding; settings: electrostatic interactions
Source text: Several different cationic scaffolds that are rich in amine suitable for conjugation reactions and which mediate electrostatic complexation or condensation with plasmid are used. These scaffolds can include: SV40 T antigen NLS (SVT=CGYGPKKKRKVGG (SEQ ID NO:5)), a mutated version of the SV40 T antigen NLS (muT=VKKGKCRPGKGYG (SEQ ID NO:2)), poly-L-lysine (MW 1, 4, and 30-70 kDa), histone H1, and hydrophilic amine-terminated dendrimers (87,340 MW) of small size (8.4 nm) available through Polysciences, Inc. (Warrington, Pa.). These scaffolds are tested for DNA condensation using a fluorescence quench assay of ethidium bromide labeled plasmid. Synthetic peptides with a C-terminus Gly-Gly-Gly-Cys-COOH (SEQ ID NO:19) linked to M9 or KNS are grafted at 1:1 to 3:1 to the activated amine-rich scaffolds. The crosslinker succinimidyl 4-(N-maleimidomethyl)cyclohexane-1 (SMCC, Pierce) is added at a final concentration of 10 mM (at 10% DMSO) to 100 μg amine rich scaffold (pH 7.2, 25 ? C for 2 hours) to react the SMCC NHS-ester to the primary amine of the scaffold. Excess SMCC and DMSO are removed by sephadex G-15 chromatography. The activated scaffold is conjugated with equimolar or 2 to 3-fold excess of the KNS or M9 peptide at 4 μC (16 hours) by maleimide reaction with the SH moiety of the C-terminal cysteine. Individual reaction species are isolated by electroelution or FLPC. […]

Substance | increase in total β-galactosidase expression over transfection with plasmid alone (confluent BAEC [1]) | percent transfection: percent of cells with fluorescence ≧100 f.u. (confluent BAEC [2]) | enhancement of β-galactosidase expression / gene transfer (confluent BAEC [1]) | plasmid condensation (plasmid)
NQSSNFGPMKGGNFGGRSSGPYGGGGQYFAKPRNQGGY-GGGC (NQSSNFGPMKGGNFGGRSSGPYGGGGQYFAKPRNQGGYGGGC; C-terminal GGGC extension) [M9 peptide] | 18.3 fold | 55% | – | –
CGYGPKKKRKVGG [SV40 T-antigen consensus NLS, reference compound] | – | – | A similar level of increase | –
VKKGKCRPGKGYG [ScT] | 4 fold | – | little benefit | condenses plasmid effectively
polylysine [reference compound] | – | – | A similar level of increase | –

— patent publication US7662629B2, “Peptide scaffolds for transfer of molecules into eukaryotic cells” (Trustees of the University of Pennsylvania, priority 1998, dated 2010)
